Test results: ChEMBL document CHEMBL3045173, “Synthesis, antibacterial, and antitubercular studies of some novel isatin derivatives” (2012)
Values after ≈ are worked out from the molar mass of the structure shown.

Assays:
Format in all cases: functional
[1] = system: Staphylococcus epidermidis; assay: Antimicrobial activity against Staphylococcus epidermidis ATCC 155 at 100 ug/ml after 24 hr by paper disk diffusion method; conditions: ATCC 155, 24 h, read-out: IZ
[2] = system: Staphylococcus aureus; assay: Antimicrobial activity against Staphylococcus aureus ATCC 9144 at 100 ug/ml after 24 hr by paper disk diffusion method; conditions: ATCC 9144, 24 h, read-out: IZ
[3] = system: Staphylococcus aureus; assay: Antimicrobial activity against Staphylococcus aureus ATCC 9144 after 24 hr by agar streak dilution method; conditions: ATCC 9144, 24 h
[4] = system: Bacillus cereus; assay: Antimicrobial activity against Bacillus cereus ATCC 11778 at 100 ug/ml after 24 hr by paper disk diffusion method; conditions: ATCC 11778, 24 h, read-out: IZ
[5] = system: Micrococcus luteus; assay: Antimicrobial activity against Micrococcus luteus ATCC 4698 at 100 ug/ml after 24 hr by paper disk diffusion method; conditions: ATCC 4698, 24 h, read-out: IZ
[6] = system: Staphylococcus epidermidis; assay: Antimicrobial activity against Staphylococcus epidermidis ATCC 155 after 24 hr by agar streak dilution method; conditions: ATCC 155, 24 h
[7] = system: Micrococcus luteus; assay: Antimicrobial activity against Micrococcus luteus ATCC 4698 after 24 hr by agar streak dilution method; conditions: ATCC 4698, 24 h
[8] = system: Mycobacterium tuberculosis; assay: Antimicrobial activity against Mycobacterium tuberculosis H37Rv ATCC 27294 after 7 days by MABA; conditions: for MIC90: Mycobacterium tuberculosis, H37Rv ATCC 27294, 168 h
[9] = system: Bacillus cereus; assay: Antimicrobial activity against Bacillus cereus ATCC 11778 after 24 hr by agar streak dilution method; conditions: ATCC 11778, 24 h

SMILES	zone of inhibition at 100 µg/mL [1] [mm]	zone of inhibition at 100 µg/mL [2] [mm]	MIC [3] [µg/mL]	zone of inhibition at 100 µg/mL [4] [mm]	zone of inhibition at 100 µg/mL [5] [mm]	MIC [6] [µg/mL]	MIC [7] [µg/mL]	inhibition (INH) [8] [%]	MIC [9] [µg/mL]	MIC90 [8] [µM]
O=C1/C(=N\c2ccc(/N=C/c3ccc([N+](=O)[O-])cc3)cc2)c2ccccc2N1Cc1ccccc1	19	15	25.2 (≈ 54.7 µM)	16	13	20.4 (≈ 44.3 µM)	27.8 (≈ 60.4 µM)	80	19.2 (≈ 41.7 µM)	
O=C1/C(=N\c2ccc(/N=C/c3ccc(Br)cc3)cc2)c2ccccc2N1Cc1ccccc1	18	19	19.3 (≈ 39 µM)	17	20	21.2 (≈ 42.9 µM)	16.3 (≈ 33 µM)	96	15.3 (≈ 30.9 µM)	4.26 (≈ 2.11 µg/mL)
O=C1/C(=N\c2ccc(/N=C/c3ccc(Cl)cc3)cc2)c2ccccc2N1Cc1ccccc1	25	21	10.4 (≈ 23.1 µM)	19	23	9.8 (≈ 21.8 µM)	11.2 (≈ 24.9 µM)	90	12.1 (≈ 26.9 µM)	
O=C1/C(=N\c2ccc(/N=C/c3ccccc3O)cc2)c2ccccc2N1Cc1ccccc1	20	20	13.2 (≈ 30.6 µM)	18	17	17.6 (≈ 40.8 µM)	20.6 (≈ 47.7 µM)	90	16.7 (≈ 38.7 µM)	
COc1ccc(/C=N/c2ccc(/N=C3\C(=O)N(Cc4ccccc4)c4ccccc43)cc2)cc1	23	19	13.6 (≈ 30.5 µM)	17	20	14.8 (≈ 33.2 µM)	12.4 (≈ 27.8 µM)	80	17.1 (≈ 38.4 µM)	
COc1ccc(/C=N/c2ccc(/N=C3\C(=O)N(Cc4ccccc4)c4ccccc43)cc2)cc1OC	18	22	11.8 (≈ 24.8 µM)	16	17	20.2 (≈ 42.5 µM)	19.6 (≈ 41.2 µM)	73	21.2 (≈ 44.6 µM)	
COc1cc(/C=N/c2ccc(/N=C3\C(=O)N(Cc4ccccc4)c4ccccc43)cc2)ccc1O	22	19	18.2 (≈ 39.4 µM)	17	19	13.8 (≈ 29.9 µM)	18.7 (≈ 40.5 µM)	80	18.6 (≈ 40.3 µM)	
CN(C)c1ccc(/C=N/c2ccc(/N=C3\C(=O)N(Cc4ccccc4)c4ccccc43)cc2)cc1	14	17	22.8 (≈ 49.7 µM)	15	18	24 (≈ 52.3 µM)	19.7 (≈ 43 µM)	79	20.7 (≈ 45.1 µM)	
O=C(O)c1cn(C2CC2)c2cc(N3CCNCC3)c(F)cc2c1=O [CIPROFLOXACIN]	29	25	0.2 (≈ 0.604 µM)	25	30	0.35 (≈ 1.06 µM)	0.1 (≈ 0.302 µM)		0.3 (≈ 0.905 µM)	
NNC(=O)c1ccncc1 [ISONIAZID]								100		0.74 (≈ 0.101 µg/mL)
COc1c(N2C[C@@H]3CCCN[C@@H]3C2)c(F)cc2c(=O)c(C(=O)O)cn(C3CC3)c12 [MOXIFLOXACIN]								100		0.25 (≈ 0.1 µg/mL)
O=[N+]([O-])c1cn2c(n1)OC[C@@H](OCc1ccc(OC(F)(F)F)cc1)C2 [PRETOMANID]								100		0.25 (≈ 0.0898 µg/mL)
CO[C@H]1/C=C/O[C@@]2(C)Oc3c(C)c(O)c4c(O)c(c(/C=N/N5CCN(C)CC5)c(O)c4c3C2=O)NC(=O)/C(C)=C\C=C\[C@H](C)[C@H](O)[C@@H](C)[C@@H](O)[C@@H](C)[C@H](OC(C)=O)[C@@H]1C [RIFAMPIN]								100		0.06 (≈ 0.0494 µg/mL)
